Test results reported in PubChem BioAssay AID296 (DTP/NCI, 2004).
Where “and” joins values, the source holds several entries; their conditions need not be identical. Identical values can stand only once. Inconclusive results are not listed.

Test system: MX-1 breast xenograft, nude mice, tumor weight T/C
Test: NCI In Vivo Anticancer Drug Screen. Data for tumor model Human Mammary Carcinoma MX-1 Xenograft (intrarenal inoculation) in NU/NU Swiss (nude) mice
Conditions: endpoint: mean tumor weight change, higher = larger tumour
How it was run: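 Read-out: treated (T) over vehicle control (C) ratio of survival or tumor size. Dosing in animals carrying the transplanted tumor.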

[1] = dose: 200.0 mg/kg/injection, schedule: Q04DX003 (sc), vehicle: suspension in saline
[2] = dose: 400.0 mg/kg/injection, schedule: Q04DX003 (sc), vehicle: suspension in saline
[3] = dose: 75.0 mg/kg/injection, schedule: Q04DX003 (sc), vehicle: saline with Tween-80
[4] = dose: 300.0 mg/kg/injection, schedule: Q04DX003 (sc), vehicle: saline with Tween-80
[5] = dose: 600.0 mg/kg/injection, schedule: Q04DX003 (sc), vehicle: saline with Tween-80

Q: `C/C=C/C=C1/OC(C)=C(C(C)=O)C1=O` was tested. Which T/C (dose: 200.0 mg/kg/injection, schedule: Q04DX003 (sc), vehicle: saline with Tween-80) did it give?
A: 104 % of control

Q: And the T/C (dose: 400.0 mg/kg/injection, schedule: Q04DX003 (sc), vehicle: saline with Tween-80)?
A: 85 % of control

Q: With `C1CNCOC1` as the compound, how does the T/C (dose: 150.0 mg/kg/injection, schedule: Q04DX003 (sc), vehicle: saline) read?
A: 100 % of control

Q: And the T/C (dose: 300.0 mg/kg/injection, schedule: Q04DX003 (sc), vehicle: saline)?
A: 84 % of control

Q: `CCOC(=O)C1=C(C#N)C2(CCC(OCc3ccccc3)CC2)C(=O)O1` (configuration not stated) was tested. Which T/C [1] did it give?
A: 81 % of control

Q: What about the T/C [2] of the same compound?
A: 119 % of control

Q: What about the T/C (dose: 800.0 mg/kg/injection, schedule: Q04DX003 (sc), vehicle: suspension in saline) of the same compound?
A: 52 % of control

Q: And the T/C (dose: 1600.0 mg/kg/injection, schedule: Q04DX003 (sc), vehicle: suspension in saline)?
A: 62 % of control

Q: Which results are given for `Nc1nc(N)c2c(ccc3c2ccn3Cc2cccc([N+](=O)[O-])c2)n1`?
A: T/C (dose: 37.5 mg/kg/injection, schedule: Q04DX003 (sc), vehicle: saline with Tween-80): 98 % of control; T/C [3]: 94 % of control

Q: Which T/C (dose: 75.0 mg/kg/injection, schedule: Q04DX003 (sc), vehicle: saline + Tween-80 + alcohol) does the source give for `CC(=O)Oc1ccccc1O` here?
A: 89 % of control

Q: What about the T/C (dose: 150.0 mg/kg/injection, schedule: Q04DX003 (sc), vehicle: saline + Tween-80 + alcohol) of the same compound?
A: 117 % of control

Q: What about the T/C (dose: 600.0 mg/kg/injection, schedule: Q04DX003 (sc), vehicle: saline + Tween-80 + alcohol) of the same compound?
A: 68 % of control

Q: `COc1cc(NS(C)(=O)=O)ccc1Nc1c2ccccc2nc2ccccc12` was tested. Which T/C (dose: 0.75 mg/kg/injection, schedule: Q01DX010 (sc), vehicle: lactic acid) did it give?
A: 124 % of control

Q: What about the T/C (dose: 3.75 mg/kg/injection, schedule: Q01DX010 (sc), vehicle: clinical formulation) of the same compound?
A: 54 % of control

Q: Which results are given for `Cn1cnc([N+](=O)[O-])c1Sc1ncn[nH]1`?
A: T/C (dose: 100.0 mg/kg/injection, schedule: Q04DX003 (sc), vehicle: suspension in saline): 72 % of control; T/C [1]: 95 % of control; T/C [2]: 92 % of control

Q: For `C[C@H](CCC[C@H](C)OS(=O)(=O)c1ccccc1)OS(=O)(=O)c1ccccc1`, which T/C [4] is on record?
A: 92 % of control

Q: And the T/C [5]?
A: 48 % of control

Q: Which T/C (dose: 300.0 mg/kg/injection, schedule: Q04DX003 (sc), vehicle: suspension in saline) does the source give for `N=c1nc2n(cc1F)[C@@H]1O[C@H](CO)[C@@H](O)[C@@H]1O2` here?
A: 104 % of control

Q: What about the T/C (dose: 600.0 mg/kg/injection, schedule: Q04DX003 (sc), vehicle: suspension in saline) of the same compound?
A: 89 % of control

Q: And the T/C (dose: 1200.0 mg/kg/injection, schedule: Q04DX003 (sc), vehicle: suspension in saline)?
A: 117 % of control

Q: Which T/C (dose: 100.0 mg/kg/injection, schedule: Q01DX010 (sc), vehicle: saline) does the source give for `CCCC(=O)O` here?
A: 104 % of control

Q: `O=c1[nH]cnc2c1ccn2C1OC(CO)C(O)C1O` (configuration not stated) was tested. Which T/C (dose: 12.5 mg/kg/injection, schedule: Q04DX003 (sc), vehicle: saline) did it give?
A: 57 % of control

Q: And the T/C (dose: 25.0 mg/kg/injection, schedule: Q04DX003 (sc), vehicle: saline)?
A: 71 % of control

Q: `Cn1c2ccccc2c2ccc3c(c21)C(=O)C=CC3=O` was tested. Which T/C [3] did it give?
A: 62 % of control

Q: What about the T/C (dose: 150.0 mg/kg/injection, schedule: Q04DX003 (sc), vehicle: saline with Tween-80) of the same compound?
A: 61 % of control

Q: And the T/C [4]?
A: 117 % of control

Q: And the T/C [5]?
A: 88 % of control

Q: `CC(C#N)(C#N)N=Nc1ccc(Cl)cc1Cl` was tested. Which T/C [4] did it give?
A: 94 % of control

Q: What about the T/C [5] of the same compound?
A: 94 % of control

Q: And the T/C (dose: 1200.0 mg/kg/injection, schedule: Q04DX003 (sc), vehicle: saline with Tween-80)?
A: 98 % of control

Q: What about the T/C (dose: 2400.0 mg/kg/injection, schedule: Q04DX003 (sc), vehicle: saline with Tween-80) of the same compound?
A: 92 % of control

Q: How did the T/C (dose: 75.0 mg/kg/injection, schedule: Q04DX003 (sc), vehicle: water) turn out when `COc1ccc(OC)c(Cc2cnc3nc(N)nc(N)c3c2C)c1` was run?
A: 73 % of control

Q: What about the T/C (dose: 150.0 mg/kg/injection, schedule: Q04DX003 (sc), vehicle: water) of the same compound?
A: 56 % of control

Q: And the T/C (dose: 300.0 mg/kg/injection, schedule: Q04DX003 (sc), vehicle: water)?
A: 53 % of control

Q: And the T/C (dose: 600.0 mg/kg/injection, schedule: Q04DX003 (sc), vehicle: water)?
A: 62 % of control

Q: `O.O.[NH-]C1CCCCC1[NH-].[Pt+2]` (configuration not stated) was tested. Which T/C (dose: 2.5 mg/kg/injection, schedule: Q01DX010 (sc), vehicle: dextrose) did it give?
A: 111 % of control

Q: What about the T/C (dose: 5.0 mg/kg/injection, schedule: Q01DX010 (sc), vehicle: dextrose) of the same compound?
A: 76 % of control and 78 % of control

Q: What about the T/C (dose: 10.0 mg/kg/injection, schedule: Q01DX010 (sc), vehicle: dextrose) of the same compound?
A: 55 % of control and 60 % of control

Q: What about the T/C (dose: 20.0 mg/kg/injection, schedule: Q01DX010 (sc), vehicle: dextrose) of the same compound?
A: 26 % of control and 36 % of control
